The source made the active and inactive calls.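 The calls were made as follows: active = compounds whose fitted half-maximal concentration in the cell-protection dose series is at or below a set limit; inactive = the rest.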 Bounds are passed on as bounds.

The assay deals with H9c2 cardiomyocytes, 2-deoxyglucose stress, ATP luminescence, 2 h. In words: protection of cardiomyocytes from 2-deoxyglucose injury, dose response, cell-based, 2-deoxyglucose stress, uHTS hits (AID 588780).
For the compound `O=C(CSc1nc2ccccc2c(=O)[nH]1)N1CCN(S(=O)(=O)c2ccccc2)CC1`, the IC50 (commonly the concentration needed to halve the response being measured) was > 79 µM (inactive). For `Cc1nc(N2CCN(S(=O)(=O)c3cccc4nonc34)CC2)c2c3c(sc2n1)CCCC3`, the IC50 was > 79 µM (inactive). Regarding `COc1ccccc1N1CCN(C(=O)c2ccc3nc(-c4ccco4)c(-c4ccco4)nc3c2)CC1`, the IC50 is 17.6 µM. For `O=C(COC(=O)Cc1n[nH]c(=O)c2ccccc12)Nc1ncc(Cl)cc1Cl`, the IC50 is > 79 µM (inactive).

Consider `O=C(Nc1cccc(NC(=O)c2ccc([N+](=O)[O-])o2)c1)c1ccco1`, for which the IC50 is > 79 µM (inactive). With `CCOC(=O)N1CCN(S(=O)(=O)c2ccc(C(=O)NNc3nc4c(C)cccc4s3)cc2)CC1` the figure was > 79 µM (inactive); with `COc1ccc2cc3cc(C(=O)NCCc4ccc(OC)c(OC)c4)oc3nc2c1`, 7.71 µM; with `O=C(NCc1ccco1)c1cc(-c2cccnc2)nc2ccc(Cl)cc12`, > 79 µM (inactive). For the compound `O=C(CN1CCN(Cc2ccccc2)CC1)Nc1ccc([N+](=O)[O-])cc1C(=O)Nc1ccccc1F`, the IC50 was 35.6 µM (inactive). Take `COc1ccc(-c2cc(C(=O)N(C)Cc3nc4ccccc4c(=O)[nH]3)c3ccccc3n2)cc1OC`: the IC50 was > 79 µM (inactive).

Take `Cc1nn(-c2ccccc2)c(N2CCCC2)c1/C=N/NC(=O)c1cc(-c2ccccn2)nc2ccccc12`: the IC50 was > 79 µM (inactive). On to `Cc1sc2nc(COC(=O)Cc3ccccc3)[nH]c(=O)c2c1C`, for which the IC50 was > 79 µM (inactive). Take `COC(=O)c1cc2c(-c3ccccc3)cc3ccccn3c-2c1C(=O)OC`: the IC50 was 13 µM.

For `Cc1cc2[nH]c(=O)c3ccccc3n2n1`, the IC50 is > 79 µM (inactive).

Take `C=CC[C@@H](CC(=O)N[C@H](CO)Cc1ccccc1)C(=O)N[C@@H](COC(=O)[C@@H](CC=C)CC(=O)OC(C)(C)C)Cc1ccccc1`: the IC50 is 17.5 µM. With `Cc1cccc(N=Cc2cc(Br)cc(Cl)c2O)c1`, the IC50 was 39.6 µM (inactive). As for `O=C(COC(=O)c1ccc([N+](=O)[O-])o1)Nc1cccc(S(=O)(=O)N2CCCCC2)c1`, the IC50 is > 79 µM (inactive). Take `CCOc1ccccc1NC(=O)c1oc2ccccc2c1NC(=O)C1CCCO1` (stereo not drawn): the IC50 is 10.6 µM. With `CC(OC(=O)Cn1[nH]c(=O)c2ccccc2c1=O)C(=O)Nc1ccc(F)cc1` (stereo not drawn), the IC50 is > 79 µM (inactive). Take `Cc1ccccc1C1c2[nH]c3ccccc3c2C[C@H]2C(=O)N(c3ccccc3C(=O)NCCCN3CCOCC3)C(=O)N12` (stereo partly drawn): the IC50 was 27.1 µM. As for `O=c1[nH]c(N2CCN(c3ccccc3)CC2)nc2c1CCC2`, the figure is > 79 µM (inactive); as for `CCCN1CCN(C(=O)CCc2nnc3ccc(N4CCN(c5cccc(OC)c5)CC4)nn23)CC1`, > 79 µM (inactive). For the compound `COc1ccc(C(=O)O/N=C(/c2ccccc2)c2ccncc2)cc1OC`, the IC50 was > 79 µM (inactive). As for `CCN(CC(=O)Nc1c(F)cccc1F)C(=O)Cn1[nH]c(=O)c2ccccc2c1=O`, the figure is > 79 µM (inactive); as for `COc1cc(/C=N/NC(=O)c2cccnc2)ccc1OS(=O)(=O)c1cc(C)ccc1C`, > 79 µM (inactive). On to `COc1ccccc1-c1cc(C(=O)N/N=C/C=C/c2ccccc2[N+](=O)[O-])c2ccccc2n1`, for which the IC50 was > 79 µM (inactive). As for `COc1cccc(C(=O)Nc2c(C(N)=O)oc3ccccc23)c1`, the IC50 is > 79 µM (inactive). Consider `COc1cc(C(=O)Nc2cc3c(cc2N2CCCCC2)n(C)c(=O)n3C)cc(OC)c1OC`, for which the IC50 is 25.4 µM. With `N#Cc1c(-c2ccco2)cc(-c2cccnc2)nc1N`, the IC50 is 12.1 µM.

Turning to `COc1cc(-c2cnc3c(NC=O)cc(-c4cccc(NC(C)=O)c4)cn23)cc(OC)c1OC`, the IC50 is > 79 µM (inactive).

Consider `O=C(CN(C(=O)Cn1nnc(-c2cccs2)n1)c1cnc2ccccc2c1)NCC1CCCO1` (stereo not drawn), for which the IC50 is > 79 µM (inactive). On to `CCOC(=O)c1ccccc1NC(=O)CSc1ccc(-c2ccccn2)nn1`, for which the concentration for half-maximal inhibition (IC50) is 23.4 µM. Consider `CCOc1ccc(/C=C/C(=O)c2cc(Br)ccc(=O)c2O)cc1`, for which the IC50 was > 79 µM (inactive). With `CC(=O)Nc1cccc(NC(=O)c2cc(-c3cccnc3)nc3ccc(Cl)cc23)c1`, the IC50 was > 79 µM (inactive).

Consider `O=C1Nc2cnc(Cl)nc2Nc2ccccc21`, for which the IC50 was > 79 µM (inactive). For the compound `COCCCn1c(N)c(C(=O)Nc2sc3c(c2C(=O)OC)CCCC3)c2nc3ccccc3nc21`, the IC50 was 34 µM (inactive). For `O=C(NCC(=O)N(Cc1cccs1)C(C(=O)NC1CCCC1)c1ccco1)c1cccs1` (stereo not drawn), the IC50 was 13.3 µM. Regarding `O=C(O)c1nn(CC(=O)N2CCN(c3ccccc3)CC2)c(=O)c2ccccc12`, the IC50 is > 79 µM (inactive). As for `O=C(CCc1nc2ccccc2c(=O)[nH]1)N1CCN(c2ccccc2Cl)CC1`, the figure is > 79 µM (inactive). Regarding `O=C(C(=O)N(Cc1ccccc1)Cc1ccccc1)c1c(-c2ccccc2)[nH]c2ccccc12`, the IC50 is > 79 µM (inactive). With `COc1ccccc1C(=O)NC(=O)COC(=O)Cn1[nH]c(=O)c2ccccc2c1=O`, the IC50 is > 79 µM (inactive). For `CCOC(=O)c1cc(-c2nnc(-c3cc(OC)c(OC)c(OC)c3)o2)c(C)nc1C`, the IC50 was > 79 µM (inactive). Regarding `CCOCCCNC(=O)CCC(=O)NNc1nc2ccccc2c2nc(-c3ccccc3)nn12`, the IC50 was 54 µM (inactive). For the compound `Cc1nc(SCC(=O)NCc2ccc(F)cc2)c2c(=O)n(C)c(=O)n(C)c2n1`, the IC50 is > 79 µM (inactive). Turning to `O=C(Nc1nc(-c2ccccn2)cs1)c1ccc(-c2ccccc2F)o1`, the IC50 is > 79 µM (inactive). For `Cc1ccccc1C(C(=O)NCc1ccccc1)N(Cc1ccco1)C(=O)c1ccccn1` (stereo not drawn), the IC50 was 23.9 µM. `O=C(Cn1[nH]c(=O)c2ccccc2c1=O)OCC(=O)N(Cc1ccccc1)Cc1ccccc1`: the IC50 is > 79 µM (inactive). With `COc1cccc(-c2nn3c(-c4ccccn4)nnc3s2)c1` the figure was 13.6 µM.

As for `CC(=O)Nc1cccc(-c2cc(NC=O)c3ncc(-c4ccc(C(C)=O)cc4)n3c2)c1`, the IC50 was > 79 µM (inactive). As for `O=c1[nH]nc(Cc2ccc([N+](=O)[O-])cc2)c2ccccc12`, the figure is 29.5 µM; as for `O=C(c1ccco1)N1CCN(Cc2nc3ccc([N+](=O)[O-])cc3c(=O)n2-c2ccccc2F)CC1`, > 79 µM (inactive); as for `COC(=O)Sc1nc(N2CCOCC2)c2c(c1C#N)CC(C)(C)OC2`, > 79 µM (inactive). As for `O=C(Cc1n[nH]c(=O)c2ccccc12)NCc1ccccn1`, the figure is > 79 µM (inactive). As for `COc1cc(OC)cc(C(=O)Nc2ccc(-c3nc4ccccc4o3)cc2)c1`, the figure is > 79 µM (inactive); as for `O=C(CCn1c(=O)oc2ccccc21)N(Cc1ccccc1)c1ccccc1`, > 79 µM (inactive); as for `CCOC(=O)c1ccc(-c2ccc3ncnc(NCc4csc(C)n4)c3c2)o1`, > 79 µM (inactive). With `O=C(O)c1nn(CCOc2ccc(Br)cc2)c(=O)c2ccccc12`, the IC50 is > 79 µM (inactive). `COc1cc(-c2nnc(-c3ccc(N4CCOCC4)cc3)o2)cc(OC)c1OC`: the IC50 was > 79 µM (inactive). Regarding `COc1cccc(-c2ccc(SCC(=O)N3CCN(c4ccccc4)CC3)nn2)c1`, the IC50 is > 79 µM (inactive). As to `C/C(=N\NC(=O)c1nnn(-c2nonc2N)c1CSc1ccc(C)cc1)c1cccnc1`, the IC50 is > 79 µM (inactive). For the compound `COc1ccc(-c2cc(-c3nnc(COC(=O)c4ccncc4)o3)c3ccccc3n2)cc1OC`, the IC50 is 11.4 µM. Regarding `COc1ccc2c(c1OC)C(=O)N1c3ccccc3C(=O)N(c3ccccc3)C21` (stereo not drawn), the IC50 was > 79 µM (inactive). On to `CC(=O)CCc1ccc(Oc2nc(-c3cccnc3)nc3ccccc23)cc1`, for which the IC50 is > 79 µM (inactive). With `COc1cc(NC(=O)c2csc(-c3ccncc3)n2)cc(C(=O)Nc2cccc(C(F)(F)F)c2)c1` the figure was 8.47 µM.

`CNC(=O)c1ccc(-c2sc3nc(N4CCOCC4)c4c(c3c2N)CCCC4)o1`: the IC50 was > 79 µM (inactive). Take `COc1cccc(C(=O)Nc2cccc(-c3nnc(-c4ccco4)o3)c2)c1`: the IC50 is > 79 µM (inactive). For the compound `O=C(CNC(=O)c1[nH]cnc1C(=O)NC(c1ccccc1)c1ccccc1)OCc1ccccc1`, the IC50 was 13.1 µM. `COc1ccc(C(=O)Nc2nc(-c3ccccn3)cs2)cc1S(=O)(=O)N1CCOCC1`: the IC50 is 16.1 µM.

Consider `CC(C)(C)NC(=O)c1cc(NC(=O)c2cccs2)cc(NC(=O)c2cccs2)c1`, for which the IC50 was > 79 µM (inactive). As to `CCOC(=O)C1=C(CC)Nc2ccccc2N=C1NC(=O)c1ccc(S(=O)(=O)N(C)C)cc1`, the IC50 is > 79 µM (inactive). Consider `CCOC(=O)C1=C(C)Nc2ccccc2N=C1NC(=O)c1oc2ccccc2c1COC`, for which the IC50 is > 79 µM (inactive). Turning to `CCCN(CC(=O)Nc1ccc(F)c(F)c1F)C(=O)CCc1nc2ccccc2c(=O)[nH]1`, the IC50 was > 79 µM (inactive).

As for `Oc1c(Br)cc(Br)cc1C=Nc1cccc2ncccc12`, the half-inhibitory concentration (IC50) was 27.3 µM. With `CCOC(=O)COc1cccc(C2NC(=O)c3ccccc3O2)c1` (stereo not drawn) the figure was > 79 µM (inactive); with `NC(=O)c1nsc(C(=O)N(c2ccccc2)C(C(=O)NCc2ccc(F)cc2)c2ccc(O)cc2)c1N` (stereo not drawn), > 79 µM (inactive).

On to `O=c1cc(-c2ccc([N+](=O)[O-])cc2)c2ccc(O)cc2o1`, for which the IC50 is > 79 µM (inactive).

For `CCC(=O)N1CCN(c2ccccc2NC(=O)COc2cc(C)ccc2C(C)C)CC1`, the IC50 was 11.5 µM. As for `CCn1nc(C(=O)NNC(=O)c2cc(Cl)ccc2OC)c2ccccc2c1=O`, the figure is 74 µM (inactive); as for `O=C(Cc1n[nH]c(=O)c2ccccc12)OCC(=O)c1ccccc1`, > 79 µM (inactive); as for `Cc1c(O)ccc2c3c(c(=O)oc12)CCC(C)C3` (stereo not drawn), 15.9 µM. Consider `O=C(CSc1nc2ccccc2c(=O)[nH]1)N1CCCCCC1`, for which the IC50 is > 79 µM (inactive).

Regarding `CC(OC(=O)Cn1[nH]c(=O)c2ccccc2c1=O)C(=O)Nc1ccc(F)cc1Cl` (stereo not drawn), the IC50 was > 79 µM (inactive). For `CC(=NO)C1CCC2C3CCC4CC(=NO)CCC4(C)C3C(C)(O)CC12C` (stereo not drawn), the IC50 was 14.9 µM.

For the origin of these results see PubChem BioAssay AID588780 (Sanford-Burnham Center for Chemical Genomics, 2011).
